Data reported in US20180327367A1, “MACROCYCLIC BROAD SPECTRUM ANTIBIOTICS” (priority 2015, published 2018).
In brackets after ≈: the same amount, converted by molar mass. Where two headings read alike, the source gives them in different places.

Legend:
Format in all cases: cell-based
[1] = test system: Escherichia coli ATCC 25922; assay: Minimum inhibitory concentration, broth micro-dilution (CLSI), E. coli; details: Escherichia coli, ATCC25922, 22 h
Protocol: Cells were inoculated onto plates of Trypyticase Soy Agar or Luria Agar respectively and grown at 35° C. for 20 hours. Inocula suspensions were prepared by scraping cells into 1 mL of testing media (cation adjusted Mueller Hinton Broth supplemented with 0.002% v/v Tween-80) and diluting to a final OD600 nm of 0.01.
(§1) Test compounds were prepared in DMSO at a concentration of 10 mg/mL. […] In protocol 2, the compound stocks were diluted into testing media at a concentration of 4 μg/mL and serial 2-fold dilutions were made in the same media, in 96-well U bottom microtiter dishes, for a total of 10 compound concentrations. In protocol 3, compound stocks were diluted into testing media at a concentration of 0.5 μg/mL, with serial 2-fold dilutions conducted as described above. […] Inocula suspensions were added to the 2-fold serial dilutions of test compounds to a final density of OD OD600 nm of 0.0005 and incubated at 35° C. for 22 hours.

[2] = test system: Escherichia coli MC4100 harboring the IMP4213 (E. coli IMP); assay: microbe, parasite or virus in culture; details: Escherichia coli, 22 h
Protocol: (§2) In vitro antimicrobial activity of each compound was determined by measuring minimal inhibitor concentrations (MICs) using the broth micro-dilution technique as approved by the Clinical and Laboratory Standards Institute (CLSI) (Methods for Dilution Antimicrobial Susceptibility Tests for Bacteria that Grow Aerobically; Approved Standard—Eighth Edition. CLSI document M07-A8. Wayne, Pa.: Clinical and Laboratory Standards; 2009). Antibacterial activity was measure against three strains of bacteria: a Methicillin Resistant Staphylococcus aureus strain USA 300, NRS384 (S. aureus); a strain of Escherichia coli MC4100 harboring the IMP4213 (E. coli IMP), which results in increased outer-membrane permeability (B Martin and Silhavy T. Imp/OstA is required for cell envelope biogenesis in Escherichia coli. (2002) Molecular Microbiology, 45(5), 1289-1302), and Escherichia coli ATCC 25922 (E. coli), a clinically relevant Gram-negative strain. Cells were inoculated onto plates of Trypyticase Soy Agar or Luria Agar respectively and grown at 35° C. for 20 hours. Inocula suspensions were prepared by scraping cells into 1 mL of testing media (cation adjusted Mueller Hinton Broth supplemented with 0.002% v/v Tween-80) and diluting to a final OD600 nm of 0.01.
as §1

[3] = test system: Methicillin Resistant Staphylococcus aureus strain USA 300, NRS384; assay: Minimum inhibitory concentration, broth micro-dilution (CLSI), S. aureus; details: Staphylococcus aureus, MRSA / NRS 384 / USA300, 22 h
Protocol: as §2, §1

[4] = read-out: MIC (μg/mL) E. coli, E. coli ATCC 25922, 35° C., 22 hours
[5] = read-out: MIC (μg/mL) E. coli IMP, E. coli MC4100 IMP4213, increased outer-membrane permeability, 35° C., 22 hours
[6] = read-out: MIC (μg/mL) S. aureus, MRSA USA 300 NRS384, 35° C., 22 hours
[7] = E. coli ATCC 25922, 35° C., 22 hours, read-out: MIC (μg/mL) E. coli
[8] = MRSA USA 300 NRS384, 35° C., 22 hours, read-out: MIC (μg/mL) S. aureus

| SMILES | MIC [1, 4] [µg/mL] | MIC [2, 5] [µg/mL] | MIC [3, 6] [µg/mL] | MIC [1, 7] [µg/mL] | MIC [3, 8] [µg/mL] | MIC ([1]; read-out: MIC (μg/mL) E. coli) [µg/mL] | MIC ([2]; read-out: MIC (μg/mL) E. coli IMP) [µg/mL] | MIC ([3]; read-out: MIC (μg/mL) S. aureus) [µg/mL] |
| --- | --- | --- | --- | --- | --- | --- | --- | --- |
| CCCCCCCCc1ccc2c(c1)CN([C@@H](CCN)C(=O)N(C)[C@@H]1C(=O)N[C@@H](C)C(=O)N[C@H](C(=O)NCC#N)Cc3ccc(OCCN)c(c3)-c3cc1ccc3OCCN)C2=O [Compound 488] | 4 (≈ 4.62 µM) | 0.13 (≈ 0.15 µM) | 0.094 (≈ 0.109 µM) | – | – | – | – | – |
| CCCCCCCCCCCCCC(=O)N(C)[C@@H]1C(=O)N[C@@H](C)C(=O)N[C@H](C(=O)N[C@@H](C)C#N)Cc2ccc(OCCN)c(c2)-c2cc1ccc2OCCN [Compound 474] | – | 0.19 (≈ 0.249 µM) | – | 4 (≈ 5.25 µM) | 2 (≈ 2.62 µM) | – | – | – |
| CCCCCCCCc1ccc(C(=O)N[C@@H](CCN)C(=O)N(C)[C@@H]2C(=O)N[C@@H](C)C(=O)N[C@H](C(=O)NCC#N)Cc3ccc(OCCN)c(c3)-c3cc2ccc3OCCN)c(OCC(=O)O)c1 [Compound 409] | – | < 0.0039 | – | 0.5 (≈ 0.539 µM) | 0.25 (≈ 0.269 µM) | – | – | – |
| CCCCCCCCCC(=O)N[C@@H](CO)C(=O)N(C)[C@@H](CCN)C(=O)N(C)[C@@H]1C(=O)N[C@@H](C)C(=O)N[C@H](C(=O)NCC#N)Cc2ccc(OCCN)c(c2)-c2cc1ccc2OCCN [Compound 399] | 16 (≈ 17.9 µM) | 0.19 (≈ 0.213 µM) | 0.25 (≈ 0.28 µM) | – | – | – | – | – |
| CCCCCCCCc1ccc(C(=O)N[C@H](C)C(=O)N(C)[C@@H]2C(=O)N[C@@H](C)C(=O)N[C@H](C(=O)NCC#N)Cc3ccc(OCCN)c(c3)-c3cc2ccc3OCCN)c(C)c1 [Compound 251] | – | 4 (≈ 4.77 µM) | – | 8 (≈ 9.53 µM) | 4 (≈ 4.77 µM) | – | – | – |
| CCCCCCCCCCCC(=O)N(C)[C@@H](CCN)C(=O)N(C)[C@@H]1C(=O)N[C@@H](C)C(=O)N[C@H](C(=O)NCC#N)Cc2ccc(OCCN)c(c2)-c2cc1ccc2OCCN [Compound 398] | – | 0.13 (≈ 0.156 µM) | – | 16 (≈ 19.2 µM) | 0.13 (≈ 0.156 µM) | – | – | – |
| Cc1cc(-n2cccn2)ccc1C(=O)N[C@@H](CCN)C(=O)N(C)[C@@H]1C(=O)N[C@@H](C)C(=O)N[C@H](C(=O)NCC#N)Cc2ccc(OCCN)c(c2)-c2cc1ccc2OCCN [Compound 411] | – | – | – | – | – | 16 (≈ 19.5 µM) | 0.5 (≈ 0.608 µM) | 2 (≈ 2.43 µM) |
| CCCCCCc1ccc(C(=O)N[C@@H](Cc2ccncc2)C(=O)N(C)[C@@H]2C(=O)N[C@@H](C)C(=O)N[C@H](C(=O)NCC#N)Cc3ccc(OCCN)c(c3)-c3cc2ccc3OCCN)c(C)c1 [Compound 479] | – | 0.5 (≈ 0.563 µM) | – | 32 (≈ 36 µM) | 0.25 (≈ 0.282 µM) | – | – | – |
| CCCCc1ccc(C(=O)N[C@@H](CCN)C(=O)N[C@@H](C)C(=O)N(C)[C@@H]2C(=O)N[C@@H](C)C(=O)N[C@H](C(=O)NCC#N)Cc3ccc(OCCN)c(c3)-c3cc2ccc3OCCN)c(C)c1 [Compound 380] | 64 (≈ 72.5 µM) | 4 (≈ 4.53 µM) | > 4 | – | – | – | – | – |
| CCCCc1ccc(C(=O)N[C@@H](CCCCN)CC(=O)N(C)[C@@H]2C(=O)N[C@@H](C)C(=O)N[C@H](C(=O)NCC#N)Cc3ccc(OCCN)c(c3)-c3cc2ccc3OCCN)c(C)c1 [Compound 509] | – | > 4 | – | > 64 | 3 (≈ 3.51 µM) | – | – | – |
| CCCCCCCCCC(=O)NCCC(=O)NCC(=O)N[C@@H](CCN)C(=O)N(C)[C@@H]1C(=O)N[C@@H](C)C(=O)N[C@H](C(=O)NCC#N)Cc2ccc(OCCN)c(c2)-c2cc1ccc2OCCN [Compound 368] | 64 (≈ 69.6 µM) | 1 (≈ 1.09 µM) | 0.25 (≈ 0.272 µM) | – | – | – | – | – |
| CCCCc1ccc(C)c(C(=O)N[C@@H](CCCN)C(=O)N(C)[C@@H]2C(=O)N[C@@H](C)C(=O)N[C@H](C(=O)NCC#N)Cc3ccc(OCCN)c(c3)-c3cc2ccc3OCCN)c1 [Compound 207] | – | 0.063 (≈ 0.0763 µM) | – | 16 (≈ 19.4 µM) | 1.5 (≈ 1.82 µM) | – | – | – |
| CCCCc1ccc(C(=O)N[C@@H](CCO)C(=O)N[C@@H](CCN)C(=O)N(C)[C@@H]2C(=O)N[C@@H](C)C(=O)N[C@H](C(=O)NCC#N)Cc3ccc(OCCN)c(c3)-c3cc2ccc3OCCN)c(C)c1 [Compound 382] | 64 (≈ 70.1 µM) | 0.5 (≈ 0.548 µM) | 0.5 (≈ 0.548 µM) | – | – | – | – | – |
| CCCCCCCCc1ccc(C(=O)NCC(=O)N(C)[C@@H]2C(=O)N[C@@H](C)C(=O)N[C@H](C(=O)NCC#N)Cc3ccc(OCCN)c(c3)-c3cc2ccc3OCCN)c(C)c1 [Compound 252] | – | 0.023 (≈ 0.0279 µM) | – | 2 (≈ 2.42 µM) | 0.25 (≈ 0.303 µM) | – | – | – |
| CCCCCCc1ccc(C(=O)N[C@@H](CCN)C(=O)N(C)[C@@H]2C(=O)N[C@@H](C)C(=O)N[C@H](C(=O)NCC#N)Cc3ccc(OCCN)c(c3)-c3cc2ccc3OCCN)c(OCCN)c1 [Compound 519] | – | 0.25 (≈ 0.282 µM) | – | 16 (≈ 18.1 µM) | 0.13 (≈ 0.147 µM) | – | – | – |
| CCCCCCCCc1ccc(C(=O)N[C@@H](CCN)C(=O)N(C)[C@@H]2C(=O)N[C@@H](C)C(=O)N[C@H](C(=O)NCC#N)Cc3ccc(OCCN)c(c3)-c3cc2ccc3OCCN)c(CCC#N)c1 [Compound 449] | 1 (≈ 1.1 µM) | 0.063 (≈ 0.0694 µM) | 0.094 (≈ 0.104 µM) | – | – | – | – | – |
| C[C@@H]1NC(=O)[C@@H](N(C)C(=O)[C@H](CCN)NC(=O)c2ccc(OCC(C)(C)C)c3ccccc23)c2ccc(OCCN)c(c2)-c2cc(ccc2OCCN)C[C@@H](C(=O)NCC#N)NC1=O [Compound 296] | – | 0.031 (≈ 0.0353 µM) | – | 2 (≈ 2.28 µM) | 0.047 (≈ 0.0535 µM) | – | – | – |
| CCCCc1ccc(C(=O)N(C)[C@@H](CCN)C(=O)N(C)[C@@H]2C(=O)N[C@@H](C)C(=O)N[C@H](C(=O)NCC#N)Cc3ccc(OCCN)c(c3)-c3cc2ccc3OCCN)c(C)c1 [Compound 397] | – | 0.38 (≈ 0.46 µM) | – | 64 (≈ 77.5 µM) | 3 (≈ 3.63 µM) | – | – | – |
| Cc1cc(-c2ccc(CC(C)C)cn2)ccc1C(=O)N[C@@H](CCN)C(=O)N(C)[C@@H]1C(=O)N[C@@H](C)C(=O)N[C@H](C(=O)NCC#N)Cc2ccc(OCCN)c(c2)-c2cc1ccc2OCCN [Compound 173] | – | 0.016 (≈ 0.018 µM) | – | 0.31 (≈ 0.349 µM) | 0.094 (≈ 0.106 µM) | – | – | – |
| CCCCCCCCCC(=O)N[C@H](C(=O)N[C@@H](CCN)C(=O)N(C)[C@@H]1C(=O)N[C@@H](C)C(=O)N[C@H](C(=O)NCC#N)Cc2ccc(OCCN)c(c2)-c2cc1ccc2OCCN)[C@@H](C)O [Compound 356] | 12 (≈ 13.4 µM) | 0.13 (≈ 0.146 µM) | 0.094 (≈ 0.105 µM) | – | – | – | – | – |
| CCCCCCCCCCCC(=O)N[C@@H](CC(=O)O)C(=O)N[C@@H](CN)C(=O)N(C)[C@@H]1C(=O)N[C@@H](C)C(=O)N[C@H](C(=O)NCC#N)Cc2ccc(OCCN)c(c2)-c2cc1ccc2OCCN [Compound 387] | 64 (≈ 69.5 µM) | 0.38 (≈ 0.413 µM) | 0.25 (≈ 0.271 µM) | – | – | – | – | – |
| C[C@@H]1NC(=O)[C@@H](N(C)C(=O)[C@H](CCCCN)NC(=O)c2ccc(-c3ccc(Cl)cc3)cc2)c2ccc(OCC(O)CN)c(c2)-c2cc(ccc2OCC(O)CN)C[C@@H](C(=O)NCC#N)NC1=O (mixture of isomers) [Compound 515] | – | 0.063 | – | 4 | 0.094 | – | – | – |
| CCCCCCCCCC(=O)N[C@H](C)C(=O)N[C@@H](CCN)C(=O)N(C)[C@@H]1C(=O)N[C@@H](C)C(=O)N[C@H](C(=O)NCC#N)Cc2ccc(OCCN)c(c2)-c2cc1ccc2OCCN [Compound 374] | 16 (≈ 18.5 µM) | 0.13 (≈ 0.151 µM) | 0.19 (≈ 0.22 µM) | – | – | – | – | – |
| CCCCCCc1ccc(C(=O)N[C@@H](CCNC(=N)N)C(=O)N(C)[C@@H]2C(=O)N[C@@H](C)C(=O)N[C@H](C(=O)NCC#N)Cc3ccc(OCCN)c(c3)-c3cc2ccc3OCCN)c(C)c1 [Compound 485] | – | 0.031 (≈ 0.0351 µM) | – | 2 (≈ 2.27 µM) | 0.063 (≈ 0.0714 µM) | – | – | – |
